Reference: US20230150970A1, “AMINOPYRIMIDINE DERIVATIVES AND THEIR USE AS ARYL HYDROCARBON RECEPTOR MODULATORS” (DONG-A ST CO., LTD., priority 2020, published 2023)

The compounds below were run against T1, AhR (Homo sapiens, UniProt P35869) (assay: In Vitro Assay 1: XRE-luciferase reporter assay, antagonism in human cell line (HepG2)). Conditions: Assay 1: AhR-Luc Human Antagonism (IC50, nM), unmarked values: kynurenine 200 μM, 6 hours.
T1 sequence (P35869 11-848): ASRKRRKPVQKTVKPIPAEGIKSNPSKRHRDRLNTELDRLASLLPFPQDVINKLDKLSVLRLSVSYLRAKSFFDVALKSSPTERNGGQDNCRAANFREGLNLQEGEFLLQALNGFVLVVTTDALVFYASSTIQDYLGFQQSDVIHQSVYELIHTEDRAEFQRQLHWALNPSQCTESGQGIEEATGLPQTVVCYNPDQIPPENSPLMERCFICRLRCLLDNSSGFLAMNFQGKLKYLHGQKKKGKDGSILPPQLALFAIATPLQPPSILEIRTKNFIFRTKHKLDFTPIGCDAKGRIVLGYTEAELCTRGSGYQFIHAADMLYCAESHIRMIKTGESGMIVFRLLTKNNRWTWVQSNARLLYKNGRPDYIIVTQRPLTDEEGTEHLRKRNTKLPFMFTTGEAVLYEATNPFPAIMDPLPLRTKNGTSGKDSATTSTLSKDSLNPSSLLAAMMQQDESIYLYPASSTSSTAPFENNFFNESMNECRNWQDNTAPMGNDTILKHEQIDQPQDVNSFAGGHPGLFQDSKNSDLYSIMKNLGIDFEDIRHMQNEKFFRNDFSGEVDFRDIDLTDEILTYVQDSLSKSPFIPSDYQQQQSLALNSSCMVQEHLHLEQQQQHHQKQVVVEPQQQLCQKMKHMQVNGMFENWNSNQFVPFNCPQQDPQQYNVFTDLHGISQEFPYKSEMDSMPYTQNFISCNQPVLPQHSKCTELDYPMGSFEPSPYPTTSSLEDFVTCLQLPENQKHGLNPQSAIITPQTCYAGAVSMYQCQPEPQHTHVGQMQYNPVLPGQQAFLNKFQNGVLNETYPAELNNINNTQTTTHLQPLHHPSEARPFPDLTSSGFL

SMILES | IC50 [nM]
CS(=O)(=O)C1(CO)CCN(c2cc(-c3ccc(Cl)cc3)nc(-c3cccnc3)n2)CC1 [Example 337, (1-(6-(4-chlorophenyl)-2-(pyridin-3-yl)pyrimidin-4-yl)-4-(methylsulfonyl)piperidin-4-yl)methanol] | < 10
CS(=O)(=O)N1CCN(c2cc(-c3ccc(C(F)(F)F)cc3)nc(-c3cccnc3)n2)CC1 [Example 341, 4-(4-(methylsulfonyl)piperazin-1-yl)-2-(pyridin-3-yl)-6-(4-(trifluoromethyl)phenyl)pyrimidine] | > 1000
O[C@@H]1CN(c2cc(-c3ccc(C(F)(F)F)cc3)nc(-c3cccnc3)n2)C[C@@H]1O [Example 343, (3S,4R)-1-(2-(pyridin-3-yl)-6-(4-(trifluoromethyl)phenyl)pyrimidin-4-yl)pyrrolidine-3,4-diol] | > 1000
Cn1cc(-c2nc(-c3ccc(Cl)cc3)cc(N3CCN(S(=O)(=O)CCO)CC3)n2)cn1 [Example 348, 2-((4-(6-(4-chlorophenyl)-2-(1-methyl-1H-pyrazol-4-yl)pyrimidin-4-yl)piperazin-1-yl)sulfonyl)ethanol] | 10 to 100
CS(=O)(=O)C1(CO)CCN(c2cc(-c3ccc(C(F)(F)F)cc3)nc(-c3cccnc3)n2)CC1 [Example 351, (4-(methylsulfonyl)-1-(2-(pyridin-3-yl)-6-(4-(trifluoromethyl)phenyl)pyrimidin-4-yl)piperidin-4-yl)methanol] | > 1000
Cn1cc(-c2nc(-c3ccc(C(F)(F)F)cc3)cc(N3CCN(S(=O)(=O)CCO)CC3)n2)cn1 [Example 353, 2-((4-(2-(1-methyl-1H-pyrazol-4-yl)-6-(4-(trifluoromethyl)phenyl)pyrimidin-4-yl)piperazin-1-yl)sulfonyl)ethanol] | 10 to 100
Cn1cc(-c2nc(-c3ccc(Cl)cc3)cc(N3CCC(CO)(S(C)(=O)=O)CC3)n2)cn1 [Example 356, (1-(6-(4-chlorophenyl)-2-(1-methyl-1H-pyrazol-4-yl)pyrimidin-4-yl)-4-(methylsulfonyl)piperidin-4-yl)methanol] | 10 to 100
Cn1cc(-c2nc(-c3ccc(C(F)(F)F)cc3)cc(N3CCC(CO)(S(C)(=O)=O)CC3)n2)cn1 [Example 357, (1-(2-(1-methyl-1H-pyrazol-4-yl)-6-(4-(trifluoromethyl)phenyl)pyrimidin-4-yl)-4-(methylsulfonyl)piperidin-4-yl)methanol] | < 10
CC1CN(S(=O)(=O)CCO)CCN1c1cc(-c2ccc(Cl)cc2)nc(-c2cccnc2)n1 (stereo not drawn) [Example 359, 2-((4-(6-(4-chlorophenyl)-2-(pyridin-3-yl)pyrimidin-4-yl)-3-methylpiperazin-1-yl)sulfonyl)ethan-1-ol] | 10 to 100
O=S(=O)(CCCO)N1CCN(c2cc(-c3ccc(Cl)cc3)nc(-c3cccnc3)n2)CC1 [Example 362, 3-((4-(6-(4-chlorophenyl)-2-(pyridin-3-yl)pyrimidin-4-yl)piperazin-1-yl)sulfonyl)propan-1-ol] | < 10
O=C(CC(O)CO)N1CCN(c2cc(-c3ccc(Cl)cc3)nc(-c3cccnc3)n2)CC1 (stereo not drawn) [Example 363, 1-(4-(6-(4-chlorophenyl)-2-(pyridin-3-yl)pyrimidin-4-yl)piperazin-1-yl)-3,4-dihydroxybutan-1-one] | < 10
CC(O)C(O)C(=O)N1CCN(c2cc(-c3ccc(Cl)cc3)nc(-c3cccnc3)n2)CC1 (stereo not drawn) [Example 364, 1-(4-(6-(4-chlorophenyl)-2-(pyridin-3-yl)pyrimidin-4-yl)piperazin-1-yl)-2,3-dihydroxybutan-1-one] | < 10
O=S(=O)(CCO)N1CCN(c2cc(-c3ccc(Cl)cc3)nc(-c3cnsc3)n2)CC1 [Example 368, 2-((4-(6-(4-chlorophenyl)-2-(isothiazol-4-yl)pyrimidin-4-yl)piperazin-1-yl)sulfonyl)ethanol] | 10 to 100
O=S(=O)(CC(O)CO)N1CCN(c2cc(-c3ccc(Cl)cc3)nc(-c3cccnc3)n2)CC1 (stereo not drawn) [Example 369, 3-((4-(6-(4-chlorophenyl)-2-(pyridin-3-yl)pyrimidin-4-yl)piperazin-1-yl)sulfonyl)propane-1,2-diol] | 10 to 100
O=S(=O)(CCO)N1CCN(c2cc(-c3ccc(C(F)(F)F)cc3)nc(-c3cnsc3)n2)CC1 [Example 370, 2-((4-(2-(isothiazol-4-yl)-6-(4-(trifluoromethyl)phenyl)pyrimidin-4-yl)piperazin-1-yl)sulfonyl)ethanol] | 10 to 100

The next lines start with the values.

IC50 [nM] | SMILES
100 to 1000 | O[C@H]1CCN(c2cc(-c3ccc(Cl)cc3)nc(-c3cnoc3)n2)C1 [Example 336, (S)-1-(6-(4-chlorophenyl)-2-(isoxazol-4-yl)pyrimidin-4-yl)pyrrolidin-3-ol]
100 to 1000 | OC1CCCCN(c2cc(-c3ccc(Cl)cc3)nc(-c3cccnc3)n2)C1 (stereo not drawn) [Example 338, 1-(6-(4-chlorophenyl)-2-(pyridin-3-yl)pyrimidin-4-yl)azepan-3-ol]
< 10 | O[C@H]1CCN(c2cc(-c3ccc(C(F)(F)F)cc3)nc(-c3cccnc3)n2)C1 [Example 340, (S)-1-(2-(pyridin-3-yl)-6-(4-(trifluoromethyl)phenyl)pyrimidin-4-yl)pyrrolidin-3-ol]
> 1000 | O[C@H]1CCN(c2cc(-c3ccc(Cl)cc3)nc(-c3cnc(F)c(F)c3)n2)C1 [Example 342, (S)-1-(6-(4-chlorophenyl)-2-(5,6-difluoropyridin-3-yl)pyrimidin-4-yl)pyrrolidin-3-ol]
< 10 | O[C@H]1CCN(c2cc(-c3ccc(Cl)cc3)nc(-c3cncnc3)n2)C1 [Example 344, (S)-1-(6-(4-chlorophenyl)-[2,5′-bipyrimidin]-4-yl)pyrrolidin-3-ol]
100 to 1000 | O[C@H]1CCN(c2cc(-c3ccc(Cl)cc3)nc(-c3ccc(F)nc3)n2)C1 [Example 345, (S)-1-(6-(4-chlorophenyl)-2-(6-fluoropyridin-3-yl)pyrimidin-4-yl)pyrrolidin-3-ol]
10 to 100 | O[C@H]1CCN(c2cc(-c3ccc(Cl)cc3)nc(-c3cccnc3F)n2)C1 [Example 346, (S)-1-(6-(4-chlorophenyl)-2-(2-fluoropyridin-3-yl)pyrimidin-4-yl)pyrrolidin-3-ol]
> 1000 | O[C@H]1CCN(c2cc(-c3ccc(Cl)cc3)nc(-c3ccccn3)n2)C1 [Example 347, (S)-1-(6-(4-chlorophenyl)-2-(pyridin-2-yl)pyrimidin-4-yl)pyrrolidin-3-ol]
< 10 | O[C@H]1CCN(c2cc(-c3ccc(C(F)(F)F)cc3)nc(-c3cnsc3)n2)C1 [Example 350, (S)-1-(2-(isothiazol-4-yl)-6-(4-(trifluoromethyl)phenyl)pyrimidin-4-yl)pyrrolidin-3-ol]
> 1000 | CN(C)C1CN(c2cc(-c3ccc(Cl)cc3)nc(-c3cccnc3)n2)CCC1O (stereo not drawn) [Example 354, 1-(6-(4-chlorophenyl)-2-(pyridin-3-yl)pyrimidin-4-yl)-3-(dimethylamino)piperidin-4-ol]
100 to 1000 | CN(C)C1CC(O)CN(c2cc(-c3ccc(Cl)cc3)nc(-c3cccnc3)n2)C1 (stereo not drawn) [Example 355, 1-(6-(4-chlorophenyl)-2-(pyridin-3-yl)pyrimidin-4-yl)-5-(dimethylamino)piperidin-3-ol]
100 to 1000 | CN(C)C1CN(c2cc(-c3ccc(Cl)cc3)nc(-c3cccnc3)n2)CCC1CO (stereo not drawn) [Example 358, (1-(6-(4-chlorophenyl)-2-(pyridin-3-yl)pyrimidin-4-yl)-3-(dimethylamino)piperidin-4-yl)methanol]
> 1000 | OCCNC1CCN(c2cc(-c3ccc(Cl)cc3)nc(-c3cccnc3)n2)CC1 [Example 360, 2-((1-(6-(4-chlorophenyl)-2-(pyridin-3-yl)pyrimidin-4-yl)piperidin-4-yl)amino)ethanol]
100 to 1000 | CC1CN(c2cc(-c3ccc(Cl)cc3)nc(-c3cccnc3)n2)CC(=O)N1 (stereo not drawn) [Example 365, 4-(6-(4-chlorophenyl)-2-(pyridin-3-yl)pyrimidin-4-yl)-6-methylpiperazin-2-one]
> 1000 | O=C1COCCN1c1ccc(-c2cc(N3CC[C@H](O)C3)nc(-c3cccnc3)n2)cc1 [Example 367, (S)-4-(4-(6-(3-hydroxypyrrolidin-1-yl)-2-(pyridin-3-yl)pyrimidin-4-yl)phenyl)morpholin-3-one]
100 to 1000 | OCC[C@H]1CN(c2cc(-c3ccc(Cl)cc3)nc(-c3cccnc3)n2)CCN1 [Example 371, (S)-2-(4-(6-(4-chlorophenyl)-2-(pyridin-3-yl)pyrimidin-4-yl)piperazin-2-yl)ethanol]
100 to 1000 | O=C1COCCN1c1ccc(-c2cc(N3CC[C@H](O)C3)nc(-c3cccnc3)n2)cn1 [Example 372, (S)-4-(5-(6-(3-hydroxypyrrolidin-1-yl)-2-(pyridin-3-yl)pyrimidin-4-yl)pyridin-2-yl)morpholin-3-one]
10 to 100 | Oc1ncccc1-c1nc(-c2ccc(N3CCOCC3)c(F)c2)cc(N2CC[C@H](O)C2)n1 [Example 373, (S)-3-(4-(3-fluoro-4-morpholinophenyl)-6-(3-hydroxypyrrolidin-1-yl)pyrimidin-2-yl)pyridin-2-ol]
